The target of one assay is T1, HDAC6 human recombinant (Homo sapiens, UniProt Q9UBN7).
T1 construct: purchased Calbiochem 382180
T1 sequence (Q9UBN7 1-1215): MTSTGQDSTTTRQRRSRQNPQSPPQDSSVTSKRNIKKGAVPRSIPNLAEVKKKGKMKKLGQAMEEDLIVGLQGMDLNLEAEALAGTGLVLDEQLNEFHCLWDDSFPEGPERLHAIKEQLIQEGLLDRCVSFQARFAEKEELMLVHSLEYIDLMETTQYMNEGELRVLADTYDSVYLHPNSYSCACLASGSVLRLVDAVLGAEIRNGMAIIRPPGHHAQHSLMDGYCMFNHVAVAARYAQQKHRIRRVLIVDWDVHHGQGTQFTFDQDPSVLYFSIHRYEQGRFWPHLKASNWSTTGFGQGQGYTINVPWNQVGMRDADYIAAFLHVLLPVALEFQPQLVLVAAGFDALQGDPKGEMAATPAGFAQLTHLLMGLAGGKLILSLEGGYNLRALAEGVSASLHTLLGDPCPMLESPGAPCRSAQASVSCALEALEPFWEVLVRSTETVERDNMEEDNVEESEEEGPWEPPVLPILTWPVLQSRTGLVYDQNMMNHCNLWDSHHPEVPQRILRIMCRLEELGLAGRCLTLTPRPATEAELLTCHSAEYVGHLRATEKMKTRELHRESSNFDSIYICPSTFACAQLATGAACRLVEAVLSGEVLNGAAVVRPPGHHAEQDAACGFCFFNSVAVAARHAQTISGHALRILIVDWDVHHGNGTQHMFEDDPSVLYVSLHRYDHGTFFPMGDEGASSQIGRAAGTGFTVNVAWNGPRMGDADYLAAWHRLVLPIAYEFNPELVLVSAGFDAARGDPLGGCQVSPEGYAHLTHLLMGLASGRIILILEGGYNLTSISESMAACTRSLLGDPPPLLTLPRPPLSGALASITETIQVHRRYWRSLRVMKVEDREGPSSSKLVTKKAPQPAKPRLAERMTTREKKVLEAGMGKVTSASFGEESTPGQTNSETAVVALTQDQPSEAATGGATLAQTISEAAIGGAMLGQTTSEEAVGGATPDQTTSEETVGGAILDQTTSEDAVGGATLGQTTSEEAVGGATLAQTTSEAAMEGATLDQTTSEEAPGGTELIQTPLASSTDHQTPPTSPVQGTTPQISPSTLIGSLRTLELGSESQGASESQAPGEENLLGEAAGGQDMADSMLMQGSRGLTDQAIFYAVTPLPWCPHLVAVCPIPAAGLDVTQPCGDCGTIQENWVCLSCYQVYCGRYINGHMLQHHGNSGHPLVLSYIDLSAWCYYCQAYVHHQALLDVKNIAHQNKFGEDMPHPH
Put plainly: HDAC enzyme activity inhibition (in vitro), HDAC6 assay. The note with it: samples at 0.1, 1, 10, 100 and 1000 nM; 37° C. 60 minutes; fluorescence Ex 390, Em 460; read-out: HDAC6 IC50. The assay is classed as biochemical. The method, then: A HDAC enzyme inhibitory capacity of a test material was measured by using HDAC1 Fluorimetric Drug Discovery Assay Kit (Enzolifesciences: BML-AK511) and HDAC6 human recombinant (Calbiochem: 382180). For a HDAC1 assay, samples were treated at a concentration of 100, 1000 and 10000 nM. […] After the above sample treatment, a reaction was continued at 37° C. for 60 minutes, then treated with a developer, and then subjected to a reaction at 37° C. for 30 minutes, after which fluorescence intensity (Ex 390, Em 460) was measured by using FlexStatin3 (Molecular device).

The target of the next assay is T2, HDAC1 (Homo sapiens, UniProt Q13547).
T2 construct: purchased Enzolifesciences BML-AK511
Put plainly: HDAC enzyme activity inhibition (in vitro), HDAC1 Fluorimetric Drug Discovery Assay Kit. It is filed as biochemical. As to conditions: samples at 100, 1000 and 10000 nM; 37° C. 60 minutes; fluorescence Ex 390, Em 460; read-out: HDAC1 IC50. The protocol: <Experimental Example 1> Identification of HDAC Enzyme Activity Inhibition (In Vitro)
A selective HDAC6 inhibitor is important for selectivity of HDAC1 inhibition, which is a cause of side effects, and thus HDAC1/6 enzyme selectivity and cell selectivity (HDAC1: histone acetylation/HDAC6: tubulin acetylation) were identified.
A HDAC enzyme inhibitory capacity of a test material was measured by using HDAC1 Fluorimetric Drug Discovery Assay Kit (Enzolifesciences: BML-AK511) and HDAC6 human recombinant (Calbiochem: 382180). For a HDAC1 assay, samples were treated at a concentration of 100, 1000 and 10000 nM. For a HDAC6 assay, samples were treated at a concentration of 0.1, 1, 10, 100 and 1000 nM. After the above sample treatment, a reaction was continued at 37° C. for 60 minutes, then treated with a developer, and then subjected to a reaction at 37° C. for 30 minutes, after which fluorescence intensity (Ex 390, Em 460) was measured by using FlexStatin3 (Molecular device).

T2 sequence (Q13547 whole entry): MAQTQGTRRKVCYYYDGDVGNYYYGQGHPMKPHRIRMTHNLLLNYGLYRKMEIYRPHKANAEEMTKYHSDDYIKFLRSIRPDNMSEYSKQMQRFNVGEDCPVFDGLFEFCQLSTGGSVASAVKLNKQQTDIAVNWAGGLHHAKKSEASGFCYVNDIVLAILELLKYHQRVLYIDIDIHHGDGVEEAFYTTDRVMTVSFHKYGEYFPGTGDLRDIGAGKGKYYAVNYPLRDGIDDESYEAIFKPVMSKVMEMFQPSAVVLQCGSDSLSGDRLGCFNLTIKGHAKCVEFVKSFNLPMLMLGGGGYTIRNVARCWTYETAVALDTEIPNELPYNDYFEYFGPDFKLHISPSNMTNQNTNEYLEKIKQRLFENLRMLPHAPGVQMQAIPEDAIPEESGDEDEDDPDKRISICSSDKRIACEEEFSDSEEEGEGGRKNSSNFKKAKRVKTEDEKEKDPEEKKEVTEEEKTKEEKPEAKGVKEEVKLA

The term IC50 denotes the point on the concentration scale where inhibition reaches its midpoint. As to `CC(C)N1CCC(n2c(=O)n(Cc3ccc(-c4nnc(C(F)F)o4)cc3F)c3ccccc32)CC1` [Compound 15, 1-(4-(5-(difluoromethyl)-1,3,4-oxadiazole-2-yl)-2-fluorobenzyl)-3-(1-isopropylpiperidine-4-yl)-1,3-dihydro-2H-benzo[d]imidazole-2-one], the IC50 was 193 nM at HDAC6 human recombinant and above 10000 nM on HDAC1.
`O=c1n(Cc2ccc(-c3nnc(C(F)F)o3)cc2F)c2ccccc2n1C1CCN(C2COC2)CC1` [Compound 16, 1-(4-(5-(difluoromethyl)-1,3,4-oxadiazole-2-yl)-2-fluorobenzyl)-3-(1-(oxetan-3-yl)piperidine-4-yl)-1,3-dihydro-2H-benzo[d]imidazole-2-one]: the IC50 at HDAC6 human recombinant is 239 nM; at HDAC1 it was above 10000 nM.
The like results for `CC(=O)N1CCC(n2c(=O)n(Cc3ccc(-c4nnc(C(F)F)o4)cc3F)c3ccccc32)CC1` [Compound 17, 1-(1-acetylpiperidine-4-yl)-3-(4-(5-(difluoromethyl)-1,3,4-oxadiazole-2-yl)-2-fluorobenzyl)-1,3-dihydro-2H-benzo[d]imidazole-2-one] were, in that order, 214 nM and above 10000 nM.
The like results for `CS(=O)(=O)N1CCC(n2c(=O)n(Cc3ccc(-c4nnc(C(F)F)o4)cc3F)c3ccccc32)CC1` [Compound 18, 1-(4-(5-(difluoromethyl)-1,3,4-oxadiazole-2-yl)-2-fluorobenzyl)-3-(1-(methylsulfonyl)piperidine-4-yl)-1,3-dihydro-2H-benzo[d]imidazole-2-one] were, in that order, 267 nM and above 10000 nM.
In the case of `O=c1n(Cc2ccc(-c3nnc(C(F)F)o3)cc2F)c2ccccc2n1C1CCN(Cc2cccc3cc[nH]c23)CC1` [Compound 19, 1-(1-((1H-indole-7-yl)methyl)piperidine-4-yl)-3-(4-(5-(difluoromethyl)-1,3,4-oxadiazole-2-yl)-2-fluorobenzyl)-1,3-dihydro-2H-benzo[d]imidazole-2-one], the IC50 was 2420 nM on HDAC6 human recombinant and above 10000 nM at HDAC1.
On to `CN1CCC(n2c(=O)n(Cc3ccc(-c4nnc(C(F)F)o4)cc3F)c3ccccc32)C1` (stereo not drawn) [Compound 20, 1-(4-(5-(difluoromethyl)-1,3,4-oxadiazole-2-yl)-2-fluorobenzyl)-3-(1-methylpyrrolidine-3-yl)-1,3-dihydro-2H-benzo[d]imidazole-2-one], for which the IC50 at HDAC6 human recombinant was 285 nM; at HDAC1, above 10000 nM.
Turning to `O=c1n(Cc2ccc(-c3nnc(C(F)F)o3)cc2F)c2ccccc2n1C1CCN(C2COC2)C1` (stereo not drawn) [Compound 21, 1-(4-(5-(difluoromethyl)-1,3,4-oxadiazole-2-yl)-2-fluorobenzyl)-3-(1-(oxetan-3-yl)pyrrolidine-3-yl)-1,3-dihydro-2H-benzo[d]imidazole-2-one], the IC50 is 299 nM at HDAC6 human recombinant and above 10000 nM at HDAC1.
For `CN1CC(n2c(=O)n(Cc3ccc(-c4nnc(C(F)F)o4)cc3F)c3ccccc32)C1` [Compound 22, 1-(4-(5-(difluoromethyl)-1,3,4-oxadiazole-2-yl)-2-fluorobenzyl)-3-(1-methylazetidine-3-yl)-1,3-dihydro-2H-benzo[d]imidazole-2-one] the same measures were 109 nM and above 10000 nM.
Consider `O=c1n(Cc2ccc(-c3nnc(C(F)F)o3)cc2F)c2ccccc2n1C1CN(C2COC2)C1` [Compound 23, 1-(4-(5-(difluoromethyl)-1,3,4-oxadiazole-2-yl)-2-fluorobenzyl)-3-(1-(oxetan-3-yl)azetidine-3-yl)-1,3-dihydro-2H-benzo[d]imidazole-2-one], for which the figures for the IC50 at HDAC6 human recombinant and at HDAC1 were 241 nM and above 10000 nM, respectively.
`O=c1n(CCN2CC3(COC3)C2)c2ccccc2n1Cc1ccc(-c2nnc(C(F)F)o2)cc1F` [Compound 24]: the IC50 on HDAC6 human recombinant is 137 nM; on HDAC1, above 10000 nM.
`O=c1n(CCN2CC3(COC3)C2)c2ccccc2n1Cc1ccc(-c2nnc(C(F)F)o2)cn1` [Compound 25, 1-(2-(2-oxa-6-azaspiro[3.3]heptane-6-yl)ethyl)-3-((5-(5-(difluoromethyl)-1,3,4-oxadiazole-2-yl)pyridine-2-yl)methyl)-1,3-dihydro-2H-benzo[d]imidazole-2-one]: the IC50 at HDAC6 human recombinant is 84 nM; at HDAC1, above 10000 nM.
With `O=c1n(CCN2CC3(COC3)C2)c2ccccc2n1Cc1ccc(-c2nnc(C(F)F)o2)cc1` [Compound 26, 1-(2-(2-oxa-6-azaspiro[3.3]heptane-6-yl)ethyl)-3-(4-(5-(difluoromethyl)-1,3,4-oxadiazole-2-yl)benzyl)-1,3-dihydro-2H-benzo[d]imidazole-2-one], the values for the IC50 on HDAC6 human recombinant and on HDAC1 were 209 nM and above 10000 nM, respectively.
For `O=c1n(Cc2ccc(-c3nnc(C(F)F)o3)cc2F)c2ccccc2n1C1CC2(COC2)C1` [Compound 27, 1-(4-(5-(difluoromethyl)-1,3,4-oxadiazole-2-yl)-2-fluorobenzyl)-3-(2-oxaspiro[3.3]heptane-6-yl)-1,3-dihydro-2H-benzo[d]imidazole-2-one] the same measures were 110 nM and above 10000 nM.
As to `O=c1n(Cc2ccc(-c3nnc(C(F)F)o3)cn2)c2ccccc2n1C1CC2(COC2)C1` [Compound 28, 1-((5-(5-(difluoromethyl)-1,3,4-oxadiazole-2-yl)pyridine-2-yl)methyl)-3-(2-oxaspiro[3.3]heptane-6-yl)-1,3-dihydro-2H-benzo[d]imidazole-2-one], the figures for the IC50 on HDAC6 human recombinant and at HDAC1 were 64 nM and above 10000 nM, respectively.
The like results for `O=c1n(Cc2ccc(-c3nnc(C(F)F)o3)cc2)c2ccccc2n1C1CC2(COC2)C1` [Compound 29, 1-(4-(5-(difluoromethyl)-1,3,4-oxadiazole-2-yl)benzyl)-3-(2-oxaspiro[3.3]heptane-6-yl)-1,3-dihydro-2H-benzo[d]imidazole-2-one] were, in that order, 210 nM and above 10000 nM.
The like results for `COCCN1Cc2ccccc2N(Cc2ccc(-c3nnc(C(F)F)o3)cc2)C1=O` [Compound 30, 1-(4-(5-(difluoromethyl)-1,3,4-oxadiazole-2-yl)benzyl)-3-(2-methoxyethyl)-3,4-dihydro quinazoline-2(1H)-one] were, in that order, 444 nM and above 10000 nM.
With `COCCN1Cc2ccccc2N(Cc2ccc(-c3nnc(C(F)F)o3)cn2)C1=O` [Compound 31, 1-((5-(5-(difluoromethyl)-1,3,4-oxadiazole-2-yl)pyridine-2-yl)methyl)-3-(2-methoxyethyl)-3,4-dihydroquinazoline-2(1H)-one], the IC50 at HDAC6 human recombinant was 108 nM; at HDAC1, above 10000 nM.
The like results for `CN1CC(N2Cc3ccccc3N(Cc3ccc(-c4nnc(C(F)F)o4)cc3F)C2=O)C1` [Compound 32, 1-(4-(5-(difluoromethyl)-1,3,4-oxadiazole-2-yl)-2-fluorobenzyl)-3-(1-methylazetidine-3-yl)-3,4-dihydroquinazoline-2(1H)-one] were, in that order, 228 nM and above 10000 nM.
